Among the data in ChEMBL document CHEMBL3286240, “Inhibition of Enterococcus faecalis biofilm formation by highly active lactones and lactams analogues of rubrolides” (Eur J Med Chem, 2014) are Activity and IC50 values, retold here.

In brackets after ≈: the same amount, converted by molar mass.

The subject of the first assay is Enterococcus faecalis. The assay is described as follows: Antimicrobial activity against Enterococcus faecalis assessed as bacterial growth at 0.34 ug/ml after 20 hrs by microtiter plate assay. In kind it is functional.
As to `COc1ccc(Cl)cc1C1=C(Br)C(=O)N(CC(C)C)/C1=C/c1ccccc1Br`, the Activity was 7.4%.

Take `COc1ccc(C)cc1C1=C(Br)C(=O)N(CC(C)C)/C1=C/c1cccc(Cl)c1`: the Activity came to 6.8%.

Consider `COc1ccc(Br)cc1C1=C(Br)C(=O)N(CC(C)C)C1(O)Cc1cccc(Cl)c1` (stereo unspecified), for which the Activity is listed as -4.7%.

Take `COc1ccc(Br)cc1C1=C(Br)C(=O)O/C1=C\c1cccc(Cl)c1`: the Activity was determined as 0.8%.

For `COc1ccc(C)cc1C1=C(Br)C(=O)N(CC(C)C)C1(O)Cc1cccc(Cl)c1` (stereo unspecified), the Activity was 0.7%.

As for `COc1ccc(Br)cc1C1=C(Br)C(=O)N(CC(C)C)/C1=C/c1ccc(Br)cc1`, the Activity is -4.4%.

A further assay has as its system Enterococcus faecalis. The assay is described as follows: Antimicrobial activity against Enterococcus faecalis assessed as bacterial growth at 0.17 ug/ml after 20 hrs by microtiter plate assay. It counts as functional.
Consider `COc1ccc(Cl)cc1C1=C(Br)C(=O)N(CC(C)C)/C1=C/c1ccccc1Br`, for which the Activity was 0.5%.

With `COc1ccc(C)cc1C1=C(Br)C(=O)N(CC(C)C)/C1=C/c1cccc(Cl)c1`, the Activity is reported as 0.4%.

As to `COc1ccc(Br)cc1C1=C(Br)C(=O)N(CC(C)C)C1(O)Cc1cccc(Cl)c1` (stereo unspecified), the Activity came out at 1.3%.

In the case of `COc1ccc(Br)cc1C1=C(Br)C(=O)O/C1=C\c1cccc(Cl)c1`, the Activity stood at 7.2%.

`COc1ccc(C)cc1C1=C(Br)C(=O)N(CC(C)C)C1(O)Cc1cccc(Cl)c1` (stereo unspecified): the Activity is listed as -2.5%.

For the compound `COc1ccc(Br)cc1C1=C(Br)C(=O)N(CC(C)C)/C1=C/c1ccc(Br)cc1`, the Activity came out at 0.8%.

For another assay, the system named is Enterococcus faecalis. The assay is described as follows: Antimicrobial activity against Enterococcus faecalis assessed as bacterial growth at 21.9 ug/ml after 20 hrs by microtiter plate assay. It counts as functional.
In the case of `COc1ccc(Cl)cc1C1=C(Br)C(=O)N(CC(C)C)/C1=C/c1ccccc1Br`, the Activity is 32.4%.

`COc1ccc(C)cc1C1=C(Br)C(=O)N(CC(C)C)/C1=C/c1cccc(Cl)c1`: the Activity is 31.8%.

Consider `COc1ccc(Br)cc1C1=C(Br)C(=O)N(CC(C)C)C1(O)Cc1cccc(Cl)c1` (stereo unspecified), for which the Activity worked out at 9.3%.

For the compound `COc1ccc(Br)cc1C1=C(Br)C(=O)O/C1=C\c1cccc(Cl)c1`, the Activity is 34.8%.

Consider `COc1ccc(C)cc1C1=C(Br)C(=O)N(CC(C)C)C1(O)Cc1cccc(Cl)c1` (stereo unspecified), for which the Activity stood at 24.9%.

In the case of `COc1ccc(Br)cc1C1=C(Br)C(=O)N(CC(C)C)/C1=C/c1ccc(Br)cc1`, the Activity turned out to be 18.1%.

The test system of another assay is Enterococcus faecalis. The assay is described as follows: Antimicrobial activity against Enterococcus faecalis assessed as bacterial growth at 1.37 ug/ml after 20 hrs by microtiter plate assay. It counts as functional.
Consider `COc1ccc(Cl)cc1C1=C(Br)C(=O)N(CC(C)C)/C1=C/c1ccccc1Br`, for which the Activity came out at 19.2%.

Consider `COc1ccc(C)cc1C1=C(Br)C(=O)N(CC(C)C)/C1=C/c1cccc(Cl)c1`, for which the Activity turned out to be 1.4%.

Turning to `COc1ccc(Br)cc1C1=C(Br)C(=O)N(CC(C)C)C1(O)Cc1cccc(Cl)c1` (stereo unspecified), the Activity stood at 1.3%.

For the compound `COc1ccc(Br)cc1C1=C(Br)C(=O)O/C1=C\c1cccc(Cl)c1`, the Activity turned out to be 14.4%.

As for `COc1ccc(C)cc1C1=C(Br)C(=O)N(CC(C)C)C1(O)Cc1cccc(Cl)c1` (stereo unspecified), the Activity is reported as 2.1%.

Consider `COc1ccc(Br)cc1C1=C(Br)C(=O)N(CC(C)C)/C1=C/c1ccc(Br)cc1`, for which the Activity is 15.8%.

The next assay deals with Enterococcus faecalis. The assay is described as follows: Antimicrobial activity against Enterococcus faecalis assessed as bacterial growth at 5.5 ug/ml after 20 hrs by microtiter plate assay. In kind it is functional.
For `COc1ccc(Cl)cc1C1=C(Br)C(=O)N(CC(C)C)/C1=C/c1ccccc1Br`, the Activity was 43.4%.

For the compound `COc1ccc(C)cc1C1=C(Br)C(=O)N(CC(C)C)/C1=C/c1cccc(Cl)c1`, the Activity worked out at 10.5%.

With `COc1ccc(Br)cc1C1=C(Br)C(=O)N(CC(C)C)C1(O)Cc1cccc(Cl)c1` (stereo unspecified), the Activity is recorded as -2.1%.

Consider `COc1ccc(Br)cc1C1=C(Br)C(=O)O/C1=C\c1cccc(Cl)c1`, for which the Activity was determined as 14.9%.

On to `COc1ccc(C)cc1C1=C(Br)C(=O)N(CC(C)C)C1(O)Cc1cccc(Cl)c1` (stereo unspecified), for which the Activity worked out at 4.2%.

Take `COc1ccc(Br)cc1C1=C(Br)C(=O)N(CC(C)C)/C1=C/c1ccc(Br)cc1`: the Activity is reported as 9.6%.

The next assay concerns Enterococcus faecalis. The assay is described as follows: Antimicrobial activity against Enterococcus faecalis assessed as bacterial growth at 43.8 ug/ml after 20 hrs by microtiter plate assay. It counts as functional.
`COc1ccc(Cl)cc1C1=C(Br)C(=O)N(CC(C)C)/C1=C/c1ccccc1Br`: the Activity is 43.4%.

For `COc1ccc(C)cc1C1=C(Br)C(=O)N(CC(C)C)/C1=C/c1cccc(Cl)c1`, the Activity worked out at 38.4%.

Consider `COc1ccc(Br)cc1C1=C(Br)C(=O)N(CC(C)C)C1(O)Cc1cccc(Cl)c1` (stereo unspecified), for which the Activity is listed as 30.3%.

Consider `COc1ccc(Br)cc1C1=C(Br)C(=O)O/C1=C\c1cccc(Cl)c1`, for which the Activity was 38.8%.

On to `COc1ccc(C)cc1C1=C(Br)C(=O)N(CC(C)C)C1(O)Cc1cccc(Cl)c1` (stereo unspecified), for which the Activity is 36.8%.

On to `COc1ccc(Br)cc1C1=C(Br)C(=O)N(CC(C)C)/C1=C/c1ccc(Br)cc1`, for which the Activity was found to be 22.5%.

Another assay has as its system Enterococcus faecalis. The assay is described as follows: Antimicrobial activity against Enterococcus faecalis assessed as bacterial growth at 2.73 ug/ml after 20 hrs by microtiter plate assay. In kind it is functional.
For `COc1ccc(Cl)cc1C1=C(Br)C(=O)N(CC(C)C)/C1=C/c1ccccc1Br`, the Activity is on record as 33.3%.

With `COc1ccc(C)cc1C1=C(Br)C(=O)N(CC(C)C)/C1=C/c1cccc(Cl)c1`, the Activity was found to be 5%.

`COc1ccc(Br)cc1C1=C(Br)C(=O)N(CC(C)C)C1(O)Cc1cccc(Cl)c1` (stereo unspecified): the Activity was -4.4%.

As for `COc1ccc(Br)cc1C1=C(Br)C(=O)O/C1=C\c1cccc(Cl)c1`, the Activity is given as 16%.

Regarding `COc1ccc(C)cc1C1=C(Br)C(=O)N(CC(C)C)C1(O)Cc1cccc(Cl)c1` (stereo unspecified), the Activity turned out to be 4.8%.

`COc1ccc(Br)cc1C1=C(Br)C(=O)N(CC(C)C)/C1=C/c1ccc(Br)cc1`: the Activity is given as 20.2%.

The subject of a further assay is Enterococcus faecalis. The assay is described as follows: Antimicrobial activity against Enterococcus faecalis assessed as bacterial growth at 87.5 ug/ml after 20 hrs by microtiter plate assay. In kind it is functional.
`COc1ccc(Cl)cc1C1=C(Br)C(=O)N(CC(C)C)/C1=C/c1ccccc1Br`: the Activity is recorded as 60.9%.

Regarding `COc1ccc(C)cc1C1=C(Br)C(=O)N(CC(C)C)/C1=C/c1cccc(Cl)c1`, the Activity is recorded as 81.4%.

Take `COc1ccc(Br)cc1C1=C(Br)C(=O)N(CC(C)C)C1(O)Cc1cccc(Cl)c1` (stereo unspecified): the Activity is 48.7%.

`COc1ccc(Br)cc1C1=C(Br)C(=O)O/C1=C\c1cccc(Cl)c1`: the Activity turned out to be 72.1%.

`COc1ccc(C)cc1C1=C(Br)C(=O)N(CC(C)C)C1(O)Cc1cccc(Cl)c1` (stereo unspecified): the Activity came to 53.1%.

On to `COc1ccc(Br)cc1C1=C(Br)C(=O)N(CC(C)C)/C1=C/c1ccc(Br)cc1`, for which the Activity was 57.1%.

In a further assay the test system is Enterococcus faecalis. The assay is described as follows: Antimicrobial activity against Enterococcus faecalis assessed as inhibition of biofilm formation after 20 hrs by crystal violet staining analysis. In kind it is functional, organism-based.
Take `COc1ccc(Cl)cc1C1=C(Br)C(=O)N(CC(C)C)/C1=C/c1ccccc1Br`: the half-inhibitory concentration (IC50) worked out at 0.76 µg/mL (≈ 1.45 µM).

Consider `COc1ccc(C)cc1C1=C(Br)C(=O)N(CC(C)C)/C1=C/c1cccc(Cl)c1`, for which the IC50 was determined as 59.3 µg/mL (≈ 129 µM).

For the compound `COc1ccc(Br)cc1C1=C(Br)C(=O)N(CC(C)C)C1(O)Cc1cccc(Cl)c1` (stereo unspecified), the IC50 is above 87.5 µg/mL.

Turning to `COc1ccc(Br)cc1C1=C(Br)C(=O)O/C1=C\c1cccc(Cl)c1`, the IC50 is 6.91 µg/mL (≈ 14.7 µM).

`COc1ccc(C)cc1C1=C(Br)C(=O)N(CC(C)C)C1(O)Cc1cccc(Cl)c1` (stereo unspecified): the 50% inhibitory concentration (IC50) is above 87.5 µg/mL.

Regarding `COc1ccc(Br)cc1C1=C(Br)C(=O)N(CC(C)C)/C1=C/c1ccc(Br)cc1`, the IC50 worked out at 3.35 µg/mL (≈ 5.88 µM).

In the next assay the test system is Enterococcus faecalis. The assay is described as follows: Antimicrobial activity against Enterococcus faecalis assessed as bacterial growth at 0.68 ug/ml after 20 hrs by microtiter plate assay. It counts as functional.
As for `COc1ccc(Cl)cc1C1=C(Br)C(=O)N(CC(C)C)/C1=C/c1ccccc1Br`, the Activity stood at 9.1%.

For the compound `COc1ccc(C)cc1C1=C(Br)C(=O)N(CC(C)C)/C1=C/c1cccc(Cl)c1`, the Activity stood at 1.4%.

Turning to `COc1ccc(Br)cc1C1=C(Br)C(=O)N(CC(C)C)C1(O)Cc1cccc(Cl)c1` (stereo unspecified), the Activity is reported as -0.8%.

Take `COc1ccc(Br)cc1C1=C(Br)C(=O)O/C1=C\c1cccc(Cl)c1`: the Activity was determined as 4.8%.

On to `COc1ccc(C)cc1C1=C(Br)C(=O)N(CC(C)C)C1(O)Cc1cccc(Cl)c1` (stereo unspecified), for which the Activity came to 3.3%.

On to `COc1ccc(Br)cc1C1=C(Br)C(=O)N(CC(C)C)/C1=C/c1ccc(Br)cc1`, for which the Activity was determined as 1.8%.

In another assay the test system is Enterococcus faecalis. The assay is described as follows: Antimicrobial activity against Enterococcus faecalis assessed as bacterial growth at 10.9 ug/ml after 20 hrs by microtiter plate assay. It counts as functional.
`COc1ccc(Cl)cc1C1=C(Br)C(=O)N(CC(C)C)/C1=C/c1ccccc1Br`: the Activity was 42.7%.

On to `COc1ccc(C)cc1C1=C(Br)C(=O)N(CC(C)C)/C1=C/c1cccc(Cl)c1`, for which the Activity is 19.4%.

For the compound `COc1ccc(Br)cc1C1=C(Br)C(=O)N(CC(C)C)C1(O)Cc1cccc(Cl)c1` (stereo unspecified), the Activity turned out to be 6.5%.

With `COc1ccc(Br)cc1C1=C(Br)C(=O)O/C1=C\c1cccc(Cl)c1`, the Activity was 18.4%.

For `COc1ccc(C)cc1C1=C(Br)C(=O)N(CC(C)C)C1(O)Cc1cccc(Cl)c1` (stereo unspecified), the Activity is listed as 5.8%.

Take `COc1ccc(Br)cc1C1=C(Br)C(=O)N(CC(C)C)/C1=C/c1ccc(Br)cc1`: the Activity was determined as 10.6%.

What is called IC50 is the midpoint of a concentration-inhibition curve.
